From PMC7641330 (2020)

Assays:
[1] = tested on: A32(2AP) Tte riboswitch (RNA, riboswitch, 2-aminopurine at 32) CUGGGUCGCAGUAACCCCAGUUAACAAAACAAG; experiment: 2-aminopurine fluorescence titration, one-site fit; details: 100 mM NaCl, 2 mM MgCl2; 50 mM Na-HEPES pH 7.0; 100 nM RNA
[2] = tested on: A14(2AP) Tte riboswitch (RNA, riboswitch, 2-aminopurine at 14) CUGGGUCGCAGUAACCCCAGUUAACAAAACAAG; experiment: 2-aminopurine fluorescence titration, one-site fit; details: 100 mM NaCl, 2 mM MgCl2; 50 mM Na-HEPES pH 7.0; 100 nM RNA
[3] = tested on: Wildtype Tte riboswitch, biotinylated (SPR) (RNA, riboswitch) CUGGGUCGCAGUAACCCCAGUUAACAAAACAAG; experiment: SPR, 1:1 kinetic fit; details: 100 mM NaCl, 3 mM MgCl2; 10 mM Na-HEPES pH 7.4; immobilised RNA
[4] = tested on: A32(2AP) Tte riboswitch (RNA, riboswitch, 2-aminopurine at 32) CUGGGUCGCAGUAACCCCAGUUAACAAAACAAG; experiment: ITC; details: 100 mM NaCl, 4 mM MgCl2; 50 mM Na-HEPES pH 7.0, 25 °C
[5] = tested on: A14(2AP) Tte riboswitch (RNA, riboswitch, 2-aminopurine at 14) CUGGGUCGCAGUAACCCCAGUUAACAAAACAAG; experiment: ITC; details: 100 mM NaCl, 4 mM MgCl2; 50 mM Na-HEPES pH 7.0, 25 °C
[6] = tested on: A10(2AP) Tte riboswitch (RNA, riboswitch, 2-aminopurine at 10) CUGGGUCGCAGUAACCCCAGUUAACAAAACAAG; experiment: ITC; details: 100 mM NaCl, 4 mM MgCl2; 50 mM Na-HEPES pH 7.0, 25 °C
[7] = tested on: A13(2AP) Tte riboswitch (RNA, riboswitch, 2-aminopurine at 13) CUGGGUCGCAGUAACCCCAGUUAACAAAACAAG; experiment: 2-aminopurine fluorescence titration, one-site fit; details: 100 mM NaCl, 2 mM MgCl2; 50 mM Na-HEPES pH 7.0; 100 nM RNA
[8] = tested on: Wildtype Tte preQ1-I riboswitch 33-mer (RNA, riboswitch) CUGGGUCGCAGUAACCCCAGUUAACAAAACAAG; experiment: ITC; details: 100 mM NaCl, 4 mM MgCl2; 50 mM Na-HEPES pH 7.0, 25 °C
[9] = tested on: A13(2AP) Tte riboswitch (RNA, riboswitch, 2-aminopurine at 13) CUGGGUCGCAGUAACCCCAGUUAACAAAACAAG; experiment: ITC; details: 100 mM NaCl, 4 mM MgCl2; 50 mM Na-HEPES pH 7.0, 25 °C
[10] = tested on: A10(2AP) Tte riboswitch (RNA, riboswitch, 2-aminopurine at 10) CUGGGUCGCAGUAACCCCAGUUAACAAAACAAG; experiment: 2-aminopurine fluorescence titration, one-site fit; details: 100 mM NaCl, 2 mM MgCl2; 50 mM Na-HEPES pH 7.0; 100 nM RNA

For `NCc1c[nH]c2nc(N)[nH]c(=O)c12`, the “apparent KD” value [1] was 12.3 ± 1.4 nM, the “apparent KD” value [2] was 34.2 ± 1.6 nM and the KD [3] was 1.84 ± 0.08 × 10^-9 M. It also gave a KD [4] of 10.5 ± 2.4 nM, a KD [5] of 19.3 ± 0.8 nM and a KD [6] of 12.6 ± 2.0 nM. For the same compound, the “apparent KD” value [7] was 25.7 ± 2.4 nM, the KD [8] was 8.1 ± 0.9 nM and the KD [9] was 21.6 ± 1.1 nM. The “apparent KD” value [10] was 13.9 ± 0.7 nM.
